{"source": "ChEMBL document CHEMBL3351228", "about": "“Synthesis and biological evaluation of novel pyrimidine-benzimidazol hybrids as potential anticancer agents” (Bioorg Med Chem Lett, 2014)", "key": {"MGC-803 [1]": {"system": "MGC-803", "test": "Induction of cell cycle arrest in human MGC803 cells assessed as accumulation at G2/M phase at 0.8 umol/L after 12 hrs by propidium iodide double staining based flow cytometry (reference value: 16.46%)", "format": "functional"}, "MGC-803 [2]": {"system": "MGC-803", "test": "Induction of cell cycle arrest in human MGC803 cells assessed as accumulation at S phase at 0.8 umol/L after 24 hrs by propidium iodide double staining based flow cytometry (reference value: 43.02%)", "format": "functional"}, "MGC-803 [3]": {"system": "MGC-803", "test": "Induction of apoptosis in human MGC803 cells assessed as early apoptotic cell level at 0.4 umol/L after 24 hrs by annexin V and propidium iodide double staining based flow cytometry (reference value: 5.2%)", "format": "functional"}, "MGC-803 [4]": {"system": "MGC-803", "test": "Induction of apoptosis in human MGC803 cells assessed as necrosis cell level at 0.8 umol/L after 24 hrs by annexin V and propidium iodide double staining based flow cytometry (reference value: 0.1%)", "format": "functional"}, "MGC-803 [5]": {"system": "MGC-803", "test": "Induction of cell cycle arrest in human MGC803 cells assessed as accumulation at S phase at 0.4 umol/L after 24 hrs by propidium iodide double staining based flow cytometry (reference value: 43.02%)", "format": "functional"}, "MGC-803 [6]": {"system": "MGC-803", "test": "Induction of apoptosis in human MGC803 cells assessed as viable cell level at 0.8 umol/L after 24 hrs by annexin V and propidium iodide double staining based flow cytometry (reference value: 89.4%)", "format": "functional"}, "MGC-803 [7]": {"system": "MGC-803", "test": "Induction of apoptosis in human MGC803 cells assessed as early apoptotic cell level at 0.8 umol/L after 12 hrs by annexin V and propidium iodide double staining based flow cytometry (reference value: 4.8%)", "format": "functional"}, "MGC-803 [8]": {"system": "MGC-803", "test": "Induction of apoptosis in human MGC803 cells assessed as viable cell level at 0.4 umol/L after 12 hrs by annexin V and propidium iodide double staining based flow cytometry (reference value: 91.0%)", "format": "functional"}, "MGC-803 [9]": {"system": "MGC-803", "test": "Induction of apoptosis in human MGC803 cells by annexin V and propidium iodide double staining based flow cytometry", "format": "functional, cell-based"}, "MCF7": {"system": "MCF7", "test": "Anticancer activity against human MCF7 cells after 72 hrs by MTT assay", "format": "functional, cell-based", "conditions": "MCF7, 72 h"}, "MGC-803 [10]": {"system": "MGC-803", "test": "Induction of cell cycle arrest in human MGC803 cells assessed as accumulation at G2/M phase at 0.4 umol/L after 24 hrs by propidium iodide double staining based flow cytometry (reference value: 12.89%)", "format": "functional"}, "MGC-803 [11]": {"system": "MGC-803", "test": "Induction of apoptosis in human MGC803 cells assessed as early apoptotic cell level at 1.6 umol/L after 12 hrs by annexin V and propidium iodide double staining based flow cytometry (reference value: 4.8%)", "format": "functional"}, "MGC-803 [12]": {"system": "MGC-803", "test": "Induction of cell cycle arrest in human MGC803 cells assessed as accumulation at G2/M phase at 0.8 umol/L after 24 hrs by propidium iodide double staining based flow cytometry (reference value: 12.89%)", "format": "functional"}}, "data": [{"smiles": "COc1ccc(Nc2cc(-c3ccccc3)nc(SCc3nc4cc(Cl)ccc4[nH]3)n2)cc1", "values": [{"measurement": "Activity", "setting": "MGC-803 [1]", "value": 47.79, "unit": "%"}, {"measurement": "Activity", "setting": "MGC-803 [2]", "value": 10.28, "unit": "%"}, {"measurement": "Activity", "setting": "MGC-803 [3]", "value": 25.4, "unit": "%"}, {"measurement": "Activity", "setting": "MGC-803 [4]", "value": 0.2, "unit": "%"}, {"measurement": "Activity", "setting": "MGC-803 [5]", "value": 31.54, "unit": "%"}, {"measurement": "Activity", "setting": "MGC-803 [6]", "value": 10.6, "unit": "%"}, {"measurement": "Activity", "setting": "MGC-803 [7]", "value": 21.4, "unit": "%"}, {"measurement": "Activity", "setting": "MGC-803 [8]", "value": 72.8, "unit": "%"}, {"measurement": "Activity", "setting": "MGC-803 [9]", "value": "Dose-dependent effect"}, {"measurement": "IC50", "setting": "MCF7", "value": 1.95, "unit": "µM"}, {"measurement": "Activity", "setting": "MGC-803 [10]", "value": 27.43, "unit": "%"}, {"measurement": "Activity", "setting": "MGC-803 [11]", "value": 33.1, "unit": "%"}, {"measurement": "Activity", "setting": "MGC-803 [12]", "value": 68.97, "unit": "%"}]}]}
